# The source made the active and inactive calls. The calls are words filed in the database; no cut-off is given here.
# Legend:
# [1] = tested on: Trypanosoma cruzi; assay: Antiparasitic activity against Trypanosoma cruzi CA-I/72 incubated for 72 hrs by DAPI staining based microscopic analysis; type: functional, organism-based; details: CA-I/72, 72 h
# [2] = tested on: Trypanosoma brucei; assay: Inhibition of TbrCatL using Z-FR-AMC as substrate at 100 uM by fluorimetric analysis relative to control
# [3] = tested on: Trypanosoma brucei; assay: Inhibition of TbrCatL using Z-FR-AMC as substrate at 100 uM preincubated for 10 mins followed by substrate addition by fluorimetric analysis relative to control
# [4] = tested on: Trypanosoma brucei; assay: Antiparasitic activity against Trypanosoma brucei incubated for 72 hrs by SYBR Green 1 dye based fluorescence assay; type: functional, organism-based
# [5] = target: Cruzipain (Trypanosoma cruzi, UniProt P25779); assay: Inhibition of Trypanosoma cruzi cruzain using Z-FR-AMC as substrate preincubated for 10 mins followed by substrate addition by fluorimetric analysis
# Sequence of Cruzipain (P25779 whole entry): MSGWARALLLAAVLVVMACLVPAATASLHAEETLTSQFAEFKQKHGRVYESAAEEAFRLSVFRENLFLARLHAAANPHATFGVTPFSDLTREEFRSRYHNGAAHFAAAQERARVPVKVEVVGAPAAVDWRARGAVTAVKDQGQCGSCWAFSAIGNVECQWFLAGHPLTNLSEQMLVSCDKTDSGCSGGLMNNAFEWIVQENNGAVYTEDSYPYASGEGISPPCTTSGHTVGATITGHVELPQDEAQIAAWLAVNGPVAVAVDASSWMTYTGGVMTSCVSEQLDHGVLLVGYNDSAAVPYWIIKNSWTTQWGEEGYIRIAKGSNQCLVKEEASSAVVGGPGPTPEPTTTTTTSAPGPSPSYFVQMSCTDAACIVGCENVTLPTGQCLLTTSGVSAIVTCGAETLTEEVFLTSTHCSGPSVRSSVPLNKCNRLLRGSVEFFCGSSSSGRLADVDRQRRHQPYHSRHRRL
# [6] = target: Nonstructural protein 3 (Zika virus) (UniProt A0A024AXB9); assay: Inhibition of Zika virus NS2B-NS3 protease using Bz-Nle-Lys-Lys-Arg-AMC as substrate at 0.78 uM preincubated for 10 mins followed by substrate addition relative to control
# Sequence of Nonstructural protein 3 (Zika virus) (A0A024AXB9 as listed by the source): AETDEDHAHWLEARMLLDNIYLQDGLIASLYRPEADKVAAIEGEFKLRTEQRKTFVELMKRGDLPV
# [7] = target: Cruzipain (Trypanosoma cruzi) (UniProt P25779); assay: Inhibition of Trypanosoma cruzi cruzain using Z-FR-AMC as substrate at 100 uM by fluorimetric analysis relative to control
# Sequence of Cruzipain (Trypanosoma cruzi) (P25779 123-467 limits assumed): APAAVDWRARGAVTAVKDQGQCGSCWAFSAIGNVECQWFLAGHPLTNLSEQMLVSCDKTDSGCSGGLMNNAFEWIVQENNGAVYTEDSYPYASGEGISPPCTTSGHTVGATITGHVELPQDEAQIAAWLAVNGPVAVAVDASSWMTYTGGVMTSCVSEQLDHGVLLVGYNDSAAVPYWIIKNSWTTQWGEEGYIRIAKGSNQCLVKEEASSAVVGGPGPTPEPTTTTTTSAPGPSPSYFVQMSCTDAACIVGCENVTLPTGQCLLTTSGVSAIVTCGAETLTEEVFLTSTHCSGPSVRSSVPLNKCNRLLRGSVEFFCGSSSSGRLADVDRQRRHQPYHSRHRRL
# [8] = tested on: Trypanosoma cruzi; assay: Potency index, ratio of benznidazole EC50 to test compound EC50 for antiparasitic activity against Trypanosoma cruzi CA-I/72 incubated for 72 hrs by DAPI staining based microscopic analysis; type: functional
# [9] = Inhibition of TbrCatL using Z-FR-AMC as substrate preincubated for 10 mins followed by substrate addition in presence of 0.01% Triton by fluorimetric analysis; parameters: species or system Trypanosoma brucei
# [10] = Inhibition of TbrCatL using Z-FR-AMC as substrate preincubated for 10 mins in presence of BSA followed by substrate addition by fluorimetric analysis; parameters: species or system Trypanosoma brucei
# [11] = tested on: Trypanosoma cruzi; assay: Potency index, ratio of pentamidine EC50 to test compound EC50 for antiparasitic activity against Trypanosoma cruzi CA-I/72 incubated for 72 hrs by DAPI staining based microscopic analysis; type: functional
# [12] = Inhibition of TbrCatL using Z-FR-AMC as substrate preincubated for 10 mins followed by substrate addition by fluorimetric analysis; parameters: species or system Trypanosoma brucei
# [13] = target: Cruzipain (Trypanosoma cruzi) (UniProt P25779); assay: Inhibition of Trypanosoma cruzi cruzain using Z-FR-AMC as substrate at 0.25 to 1 uM incubated for 10 mins by fluorimetric analysis; details: dose 0.25-1 µM
# [14] = Inhibition of TbrCatL using Z-FR-AMC as substrate preincubated for 10 mins followed by substrate addition in presence of 0.1% Triton by fluorimetric analysis; parameters: species or system Trypanosoma brucei
# [15] = target: Cruzipain (Trypanosoma cruzi) (UniProt P25779); assay: Inhibition of Trypanosoma cruzi cruzain using Z-FR-AMC as substrate at 100 uM preincubated for 10 mins followed by substrate addition by fluorimetric analysis relative to control
# [16] = Selectivity index, ratio of CC50 for mouse myoblasts cells to EC50 for Trypanosoma cruzi CA-I/72; type: toxicity; details: read-out: Ratio CC50/EC50
# [17] = Inhibition of TbrCatL using Z-FR-AMC as substrate preincubated for 10 mins followed by substrate addition in presence of 0% Triton by fluorimetric analysis; parameters: species or system Trypanosoma brucei
SMILES,EC50 [1],inhibition [2],inhibition [3],EC50 [4],IC50 [5],inhibition [7],IC50 [12],other results
OCC(CO)NCc1ccc(-c2ccc(Cl)c(C(F)(F)F)c2)o1,> 10 µM,0%,51%,> 50 µM,133 µM,,,
OCCNCc1cn(-c2ccc(Cl)cc2)nn1,> 10 µM,,,> 50 µM,,,,
NC(=S)N/N=C/c1ccc(-c2ccc(Br)cc2Cl)o1,0.027 µM,22%,90%,> 50 µM,0.45 µM,17%,0.05 µM,inhibition [6]: 8%; Ratio EC50 [8]: 200; IC50 [9]: 0.05 µM; IC50 [10]: 14 µM; Ratio EC50 [11]: 200; inhibition [13]: inactive; IC50 [14]: 0.7 µM; inhibition [15]: 70%; selectivity ratio [16]: > 370; IC50 [17]: 0.006 µM
CN(C)CCCNCc1ccc(-c2ccc(Br)cc2)o1,,59%,,,,79%,,
O=C(NCCO)c1cn(-c2ccc(Br)cc2Cl)nn1,> 10 µM,,,> 50 µM,,,,
Clc1cc(Br)ccc1-c1ccc(CNCCN2CCOCC2)o1,0.59 µM,62%,60%,24.4 µM,92 µM,,79 µM,selectivity ratio [16]: > 17
NC(=S)N/N=C/c1cn(-c2ccc(Cl)cc2)nn1,> 10 µM,73%,91%,> 50 µM,,52%,16.5 µM,IC50 [9]: 16 µM; inhibition [15]: 72%; IC50 [17]: 1 µM
N/C(S)=N/N=C/c1ccc(-c2ccc(Cl)cc2)o1,0.56 µM,14%,96%,27 µM,,19%,0.04 µM,inhibition [6]: 24%; IC50 [9]: 0.04 µM; IC50 [10]: 15 µM; inhibition [13]: inactive; inhibition [15]: 94%; IC50 [17]: 0.07 µM
OCCNCc1ccc(-c2ccc(Cl)c(Cl)c2)o1,> 10 µM,29%,40%,> 50 µM,,62%,,inhibition [15]: 55%
O=C(Cn1ccnc1[N+](=O)[O-])NCc1ccccc1 [BENZNIDAZOLE],5.4 µM,,,,,,,selectivity ratio [16]: > 9
OCC(CO)NCc1ccc(-c2ccc(Br)cc2Cl)o1,> 10 µM,64%,,39.5 µM,149 µM,,90 µM,
Clc1ccc(-n2cc(CNCC3CCNCC3)nn2)cc1,> 10 µM,,,49.7 µM,,,168 µM,
OCCNCc1cn(-c2ccc(Br)cc2Cl)nn1,> 10 µM,,,> 50 µM,,,,
OCCNCc1ccc(-c2ccc(Br)cc2Cl)o1,> 10 µM,68%,67%,13 µM,51 µM,,78 µM,
CN(C)CCCNCc1ccc(-c2ccc(Cl)cc2Cl)o1,,81%,,,,67%,,
OCCNCc1cn(-c2ccc(Cl)c(Cl)c2)nn1,> 10 µM,,,> 50 µM,,,,
NC(=S)N/N=C/c1cn(-c2ccc(Br)cc2Cl)nn1,> 10 µM,25%,98%,> 50 µM,,16%,2.5 µM,IC50 [9]: 2 µM; inhibition [15]: 6%; IC50 [17]: 0.6 µM
NC(=S)N/N=C/c1ccc(-c2ccc(Cl)cc2)o1,,,,,1 µM,,,selectivity ratio [16]: > 18

# — ChEMBL document CHEMBL5247638, “From rational design to serendipity: Discovery of novel thiosemicarbazones as potent trypanocidal compounds” (Eur J Med Chem, 2022)
